These results are taken from US20050080024A1, “Nitric oxide donating derivatives for the treatment of cardiovascular disorders” (priority 2002, published 2005).

Where two headings read alike, the source gives them in different places.

One assay relates to C. albicans. Description: Murine model for systemic candidiasis. Type of assay: in vivo. Particulars: treated mice; fluconazole orally. The method, then:
In addition, fungicidal compounds of the invention are efficacious in a murine model for systemic candidiasis. Fungicidal compounds of the invention prolong mean and median survival times of treated mice. The compounds are administered IP producing a similar survival pattern as that produced by the positive control compound fluconazole administered orally. […] Fungicidal compounds of the invention are also efficacious when administered orally to mice with an established systemic Candida infection. The compound given orally is similar in efficacy to fluconazole as measured by survival time, percent cures and kidney burden. Fungicidal compounds of the invention are also effective against systemic candidiasis caused by a strain of C. albicans resistant to fluconazole.

For assay [1] the following is noted: rabbits; cited from earlier work.
The conditions of assay [2]: human study; cited from earlier work.
For another assay, the system named is ApoA-1 gene. The conditions noted are these: putatively mediated through Site S (PCT/CA03/01220); cited from earlier work.

In the case of `OC(Cn1cncn1)(Cn1cncn1)c1ccc(F)cc1F` [fluconazole], in the assay on C. albicans, the “recoverable colonies from the kidneys” value was “reduce recoverable colonies from the kidneys”.
For the molecule `O=C1CC(c2ccc(O)cc2)Oc2cc(O)cc(O)c21` (stereo not shown) [naringenin, 5,7-dihydroxy-2-(4-hydroxy-phenyl)-chroman-4-one], in assay [1], the HDL result was “no effect upon HDL” and the LDL entry is “decrease LDL”. In assay [2], the HDL entry is recorded as “increase HDL”, the LDL entry is “no effect” and the triglycerides result is reported as “no effect”.
On to `Oc1ccc(/C=C/c2cc(O)cc(O)c2)cc1` [resveratrol, 5-[(E)-2-(4-hydroxy-phenyl)-vinyl]-benzene-1,3-diol], for which the “transcription of apolipoprotein Al” value in the assay with ApoA-1 gene was “increase the transcription of apolipoprotein Al”.
